Read-outs that look alike come from different tables or passages of the source.
How the values were obtained:
RRR = test: Dependence of RRR cleavage activity on Rev (FRET ribozyme reaction); format: biochemical; conditions: for IC50: read-out: K inh (inhibition of RRR at the half maximal concentration of Rev)
Method: (§1) Negative control reactions without ribozymes were subtracted.
(§2) Cleavage reactions with multiple turnover were performed at 32° C. in a test buffer containing 50 mM Tris (pH 7.9) and 25 mM NaCl. The total volume of the reactions was 50 μl in plates with 96 flat bottom wells. The fluorescence measurements were performed at an excitation wavelength of 489 nm, FAM emission at 520 nm and with the fluorescence detector Ascent Fluoroscan FL, as described by Jenne, A. et al., Rapid identification and characterization of hammerhead-ribozyme inhibitors using fluorescence-based technology, Nat Biotechnol 19, 56-61 (2001). Ribozyme (10 nM) and FRET-labeled substrate (200 nM) were first incubated in test buffer at room temperature for 5 min, followed by optional addition of Rev and/or antibiotic. The reactions were then incubated for 5 min at 32° C. and started by the addition of MgCl2 to a final concentration of 8 mM, using the dispensing function of the fluorometer. Negative controls were always included for reactions without ribozyme and were subtracted after the measurements.

AIR = test: Dependence of AIR cleavage activity on Rev (FRET ribozyme reaction); format: biochemical; conditions: for EC50: read-out: Kact (activation of AIR)
Method: as §1, §2

hammerhead ribozyme HHR = test: HHR cleavage reaction (internal control, FRET); format: biochemical
Method: as §2
(§3) Two different screening experiments were performed, one using the RRR reporter construct and the other using AIR. […] Each reaction which contained antibiotics also contained Rev peptide. For each antibiotic, three different reactions were performed: HHR, reporter construct (RRR or AIR), negative controls, which only contained antibiotic and Rev and substrate. The antibiotic concentrations were 100 μM in each case. After subtraction of the negative control, the rise in fluorescence in the first five minutes, corresponding to the initial rate of reaction, was divided by the rise in fluorescence in the standard reaction without antibiotic, containing the active state of the ribozyme (see also FIG. 10).

reverse transcriptase = reverse transcriptase (Human immunodeficiency virus type 1 group M subtype B, UniProt P04585); test: Standard transcriptase assay (specificity control); format: biochemical, HIV-1; conditions: 2.5 μM
Method: As a control of the target protein reverse transcriptase, another nucleic acid binding protein from HIV-1 was tested, to check the specificity of the identified Rev-binding antibiotics.

Rev protein [1] = biological target: T1, Rev protein (Human immunodeficiency virus type 1 group M subtype B, UniProt P04618); test: Surface plasmon resonance, Rev protein; format: binding, HIV; conditions: 100 μM antibiotic, 25° C.
T1 construct: the intact Rev protein and by the Rev peptide
Method: (§4) 20 μl 100 μM antibiotic in test buffer was injected at 25° C., rate 10 μl/s.
(§5) Surface plasmon resonance studies were performed with a Biocore 3000 instrument in the automatic mode.

Rev peptide / AIR = biological target: T2, Rev peptide / AIR (Human immunodeficiency virus type 1 group M subtype B, UniProt P04618); test: AIR screen (screen 2) of antibiotics: inhibition of Rev-activated AIR; format: biochemical, HIV; conditions: for AIR screen outcome (inhibition of AIR relative to HHR): 100 μM antibiotic, 250 nM Rev peptide
T2 construct: includes aminoacids 34 to 50 of the Rev protein
Method: as §2, §3
[…]. […] […].

Rev peptide = biological target: T3, Rev peptide (Human immunodeficiency virus type 1 group M subtype B, UniProt P04618); test: Surface plasmon resonance, Rev peptide; format: binding, HIV; conditions: 100 μM antibiotic, 25° C.
T3 construct: includes aminoacids 34 to 50 of the Rev protein
Method: as §4, §5

RRR-RNA = test: Surface plasmon resonance, RRR-RNA surface; format: binding; conditions: 100 μM antibiotic, 25° C.
Method: 20 μl 100 μM antibiotic in test buffer was injected at 25° C., rate 10 μl/s. […] There is no binding to RRR-derivatized surfaces detectable. Coumermycin only binds to Rev, but not to ribozymes. FIG. 13b illustrates the interaction between novobiocin, rosamicin, griseofulvin, streptolydigin and patulin with surfaces derivatized with Rev protein.
Surface plasmon resonance studies were performed with a Biocore 3000 instrument in the automatic mode. Rev protein and peptide surfaces were prepared by injection of 100 μM solutions in 60 mM NaOAc, pH 5.7 on EDC/NHS-activated CM5-Chips, which gave 1800 RU immobilized peptide and 5000 RU protein.

Rev peptide / RRR = biological target: T4, Rev peptide / RRR (Human immunodeficiency virus type 1 group M subtype B, UniProt P04618); test: RRR screen (screen 1) of antibiotics: restoration of cleavage activity; format: biochemical, HIV; conditions: 100 μM, 1 μM Rev-peptide
T4 construct: includes aminoacids 34 to 50 of the Rev protein
Method: as §2, with “Negative controls were always included for reactions without ribozyme and were subtracted after the measurements.” left out
Two different screening experiments were performed, one using the RRR reporter construct and the other using AIR. […] After subtraction of the negative control, the rise in fluorescence in the first five minutes, corresponding to the initial rate of reaction, was divided by the rise in fluorescence in the standard reaction without antibiotic, containing the active state of the ribozyme (see also FIG. 10). […]

Rev protein [2] = biological target: T5, Rev protein (HIV-1, UniProt P04618 P04618:1-116); test: cleavage_in_vitro; K act of ribozyme; 8 mM MgCl2, 32 C; conditions: tags: full-length
Rev protein [3] = biological target: Rev protein (HIV-1, UniProt P04618 P04618:1-116); test: inhibition; K inh of ribozyme; 8 mM MgCl2, 32 C; conditions: tags: full-length; label: biotin (SPR surface) or 5'-32P (filter); hammerhead ribozyme
Rev protein [4] = biological target: T5, Rev protein; test: competition; 2 uM RNA competes with IRK-1 for 200 nM Rev; 10 mM HEPES pH 7.4, 100 mM NaCl, 10 mM MgCl2; conditions: tags: full-length

Rev peptide: Rev peptide, which includes aminoacids 34 to 50 of the Rev protein (TRQARRNRRRRWRERQR; UniProt P04618 34-50, looked up, fragment)
effect of Rev on ribozyme RRR (RRR; 1 μM Rev-peptide): inhibition | IC50 (RRR; Rev peptide): 464 nM | concentration above which AIR is inhibited (AIR): above 800 nM | effect of Rev on AIR (AIR; 250 nM Rev): activation | EC50 (AIR): 170 nM | concentration above which HHR is inhibited (hammerhead ribozyme HHR): more than 1 μM | initial activity of HHR (hammerhead ribozyme HHR; 1 μM Rev): 93% | effect of Rev on wildtype HHR (hammerhead ribozyme HHR; 1 μM Rev-peptide): hardly affected | concentration above which HHR is inhibited (hammerhead ribozyme HHR; listed as Rev): above 1 μM

Nc1ccn([C@H]2CC[C@@H](COP(=O)(O)OP(=O)(O)OP(=O)(O)O)O2)c(=O)n1 [ddCTP]
inhibition of reverse transcriptase (reverse transcriptase): total inhibition

CNC(=O)[C@@H](C)[C@H]1C(=O)/C(=C(O)/C=C/C(C)=C/[C@@H](C)[C@H]2O[C@@]3(C)O[C@H](C=C[C@@]34CO4)[C@@H]2C)C(=O)N1[C@@H]1CC[C@H](O)[C@H](C)O1 [streptolydigin]
binding to surface derivatized with Rev protein (Rev protein [1]): Only the antibiotics novobiocin and patulin, which were identified in the course of screening, exhibited binding to Rev

O=C1C=C2C(=CCOC2O)O1 (centres unmarked) [patulin]
binding to surface derivatized with Rev protein (Rev protein [1]): exhibited binding | AIR screen outcome (inhibition of AIR relative to HHR) (Rev peptide / AIR): Rev inhibitors

COC1=CC(=O)C[C@@H](C)[C@]12Oc1c(Cl)c(OC)cc(OC)c1C2=O [griseofulvin]
binding to surface derivatized with Rev protein (Rev protein [1]): Only the antibiotics novobiocin and patulin, which were identified in the course of screening, exhibited binding to Rev

Rev protein: intact Rev protein of HIV
concentration above which RRR is inhibited (RRR): above 1 μM | IC50 (RRR; Rev protein): 1700 nM | concentration at which AIR is still activated (AIR): above 5 μM | inhibition of AIR by high concentrations (AIR): no observed inhibition | EC50 (AIR): 192 nM

CC[C@H]1OC(=O)C[C@@H](O)[C@H](C)[C@@H](O[C@@H]2O[C@H](C)C[C@H](N(C)C)[C@H]2O)[C@@H](CC=O)C[C@@H](C)C(=O)/C=C/[C@]2(C)O[C@H]2[C@@H]1C [rosamicin]
binding to surface derivatized with Rev protein (Rev protein [1]): Only the antibiotics novobiocin and patulin, which were identified in the course of screening, exhibited binding to Rev

coumermycin A1
binding to surface derivatized with Rev protein (Rev protein [1]): binding | binding to surface derivatized with Rev peptide (Rev peptide): binding | binding to RRR-derivatized surface (RRR-RNA): no binding | effect on wildtype HHR (hammerhead ribozyme HHR; 100 μM with 1 μM Rev-peptide): hardly affected | reversal of the action of Rev on RRR (Rev peptide / RRR): fully reversed | AIR screen outcome (inhibition of AIR relative to HHR) (Rev peptide / AIR): Rev inhibitors | reversal of the action of Rev on AIR (Rev peptide / AIR; 100 μM, 250 nM Rev): fully reversed

C=C(NC(=O)c1csc(-c2nc3c(cc2O)-c2nc(cs2)C(=O)NC(C(C)O)C(=O)N/C(=C\C)c2nc(cs2)C(=O)NC2CC(O)C(=O)OCc4cccc5[nH]c(c(C)c45)C(=O)SCC(NC(=O)c4csc2n4)c2nc-3cs2)n1)C(N)=O (centres unmarked) [nosiheptide]
AIR screen outcome (inhibition of AIR relative to HHR) (Rev peptide / AIR): Rev inhibitors

CO[C@@H]1[C@@H](OC(N)=O)[C@@H](O)[C@H](Oc2ccc3c(O)c(NC(=O)c4ccc(O)c(CC=C(C)C)c4)c(=O)oc3c2C)OC1(C)C [novobiocin]
binding to surface derivatized with Rev protein (Rev protein [1]): exhibited binding

B1: AIR (aptamer-inhibited ribozyme) (ssRNA)
RNA: GGGACUCGCUUCGGCUUGAGAUACCAAAAAGGGUCCUCUGAUGAGGCCGUUAGGCCGAAACUCGU
apparent K (half saturation) (Rev protein [2]): 192 nM

B2: RRR (Rev-responsive ribozyme, RBE in stem II) (ssRNA)
RNA: GGGUCCUCUGAUGAGCUCUGGGCGCAGCUUCGGCUGACGGUACUUGCGAAACUCGU
apparent K (half saturation) (Rev protein [3]): 1700 nM

GGGAGGUGGACUCCAGCUUCGGCUGUUGAGAUACACC (ssRNA) [Seq 5]
binding result (Rev protein [4]): binds
